This note sets out measurements from ChEMBL document CHEMBL4354883, “Design, Synthesis, and Biological Evaluation of HSP90 Inhibitor-SN38 Conjugates for Targeted Drug Accumulation” (J Med Chem, 2020).

Data set [1] can be described thus: Half life in human plasma at 25 uM by HPLC analysis. Format: ADME, cell-free.
The nature of data set [2]: Half life in mouse plasma at 25 uM by HPLC analysis. Type of data set: ADME, cell-free.
The nature of data set [3]: Half life of compound in PBS buffer at pH 7.4 at 50 uM by HPLC analysis. Format: physicochemical.
The target in data set [4] is Heat shock protein HSP 90-alpha (Homo sapiens, UniProt P07900). Briefly: biochemical.
Description: Inhibition of recombinant human full length HSP90 alpha expressed in Escherichia coli cells after 1 hr by fluorescence polarization assay
Data set [5] in a line: Half life of compound in PBS buffer at pH 6.0 at 50 uM by HPLC analysis. Type of data set: physicochemical.
Data set [6] has as its system CAPAN-1. The note with it: Homo sapiens, 28 mg/kg.
Description: Antitumor activity against human Capan1 cells xenografted in mouse assessed as reduction in tumor weight at 28 mg/kg, iv for every 2 days and measured twice per week by caliper method
Data set [7] deals with HCT-116. Briefly: Antiproliferative activity against human HCT116 cells assessed as reduction in cell viability after 72 hrs by SRB assay. The note with it: HCT-116, 72 h. Type of data set: functional, cell-based. (In general: The SRB assay estimates cell density from bound dye.)
Data set [8] relates to A549. Particulars: Homo sapiens, 0.2 uM.
Description: Downregulation of TOP1 expression in human A549 cells at 0.2 uM after 24 hrs by Western blot analysis
The subject of data set [9] is A549. Briefly: Antiproliferative activity against human A549 cells assessed as reduction in cell viability after 72 hrs by SRB assay. Type of data set: functional, cell-based. The note with it: A549, 72 h.
The test system of data set [10] is HCT-116. Particulars: Homo sapiens, 0.2 uM.
Description: Downregulation of TOP1 expression in human HCT116 cells at 0.2 uM after 24 hrs by Western blot analysis
In data set [11] the test system is HCT-116. Briefly: Antitumor activity against human HCT116 cells xenografted in mouse assessed as reduction in tumor volume at 50 mg/kg, iv for 5 consecutive days per week and measured every 3 to 4 days up to 14 days by microcaliper analysis relative to control. Format: functional. A general note: Xenograft models place foreign cells or tissue in a host animal.

Data set [12] concerns CAPAN-1. Briefly: Antiproliferative activity against human Capan1 cells assessed as reduction in cell viability after 72 hrs by SRB assay. Format: functional, cell-based. The note with it: CAPAN-1, 72 h.
Data set [13] relates to CAPAN-1. Briefly: Antitumor activity against human Capan1 cells xenografted in mouse assessed as reduction in tumor volume at 28 mg/kg, iv for every 2 days and measured twice per week by microcaliper method relative to control. Type of data set: functional.
The species entered for data set [14] is Mus musculus. Particulars: 28 mg/kg.
Description: In vivo inhibition of HSP90 in mouse xenografted with human Capan1 cells assessed as increase in HSP70 protein expression at 28 mg/kg, iv for every 2 days measured at 2 hrs post last dose by Western blot analysis
Data set [15] deals with L02. Briefly: Cytotoxicity agains human HL7702 cells assessed as reduction in cell viability after 72 hrs by SRB assay. The note with it: L02, 72 h. Type of data set: cell-based.
The species named for data set [16] is Mus musculus. The note with it: 28 mg/kg. This is another data set of the same source.
Description: In vivo inhibition of HSP90 in mouse xenografted with human Capan1 cells assessed as decrease in AKT protein expression at 28 mg/kg, iv for every 2 days measured at 2 hrs post last dose by Western blot analysis
Data set [17] deals with MIA PaCa-2. Briefly: Antiproliferative activity against human MIAPaCa2 cells assessed as reduction in cell viability after 72 hrs by SRB assay. The note with it: MIA PaCa-2, 72 h. Format: functional, cell-based.

Activity calls are given as the source filed them. The calls are words filed in the database; no cut-off is given here.

Broadly, the half-life is the time in which the quantity being followed falls by half. In general, IC50 refers to the concentration at which inhibition is half-maximal. `CCc1c2c(nc3ccc(OC(=O)N4CCC(NC(=O)CNc5cc(-n6nc(C(F)(F)F)c7c6CC(C)(C)CC7=O)ccc5C(N)=O)CC4)cc13)-c1cc3c(c(=O)n1C2)COC(=O)[C@]3(O)CC`: the half-life at 25 µM in data set [1] and in [2] was more than 24 h each time. The half-life at 50 µM in [3] and in data set [5] was more than 24 h each time. The molecule also registered an IC50 in data set [4] of 1260 nM.

As usually defined, the T/C is the ratio of treated to control. Turning to `CCNC(=O)c1noc(-c2cc(C(C)C)c(O)cc2O)c1-c1ccc(CN2CCOCC2)cc1` [LUMINESPIB], the inhibition result in data set [6], in data set [8], in data set [10], in data set [14] and in data set [16] was “Active” in each case. Further, the half-inhibitory concentration (IC50) was 121 nM in data set [7]; 39 nM in data set [9]; 657 nM in [12]; 1360 nM in data set [15]; 38 nM in [17]. For the same molecule, the T/C in [11] amounted to 49.9%; in data set [13], 57.03%.

Turning to `CCc1c2c(nc3ccc(O)cc13)-c1cc3c(c(=O)n1C2)COC(=O)[C@@]3(CC)OC(=O)CNC(=O)CNc1cc(-n2nc(C(F)(F)F)c3c2CC(C)(C)CC3=O)ccc1C(N)=O`, the half-life at 25 µM was 13 h in [1] and 10 h in [2]. Besides, the figures for the half-life at 50 µM in [3] and in data set [5] were 7 h and more than 24 h, respectively. The same molecule gave a half-inhibitory concentration (IC50) in data set [4] of 1510 nM.

Consider `CC1(C)CC(=O)c2c(C(F)(F)F)nn(-c3ccc(C(N)=O)c(N[C@H]4CC[C@H](OC(=O)CN)CC4)c3)c2C1` [SNX 5422], for which half-maximal inhibition in data set [4] (IC50) was put at 38 nM.
